This is an account of results in US20260355212A1 (priority 2022, published 2026).

One test deals with SARS-CoV-1 Mpro (Severe acute respiratory syndrome coronavirus, UniProt P0C6X7). Put plainly: biochemical.
In the next test the target is HCoV-229E Mpro (Human coronavirus 229E, UniProt P0C6X1). Nature of the test: HCoV-229E Mpro enzymatic inhibition assay (fluorescence). Format: biochemical.
Another test has as its target HCoV-NL63 Mpro (Human coronavirus NL63, UniProt P0C6X5). Nature of the test: HCoV-NL63 Mpro enzymatic inhibition assay (fluorescence). Format: biochemical. The gist of the method: (§1)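 Fluorescence at 340/490 nm after 60 min substrate cleavage at 30 °C is the read-out. Purified E. coli-expressed protease had been pre-incubated 30 min at room temperature with 10-dose, 3-fold compound series in duplicate.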

The next test addresses SARS-CoV-2 Mpro (Severe acute respiratory syndrome coronavirus 2, UniProt P0DTD1). Put plainly: SARS-CoV-2 Mpro enzymatic inhibition assay (fluorescence). In kind it is biochemical. The essentials:
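Recombinant Mpro expressed in E. coli was preincubated 30 min at room temperature with 10-point, 3-fold serially diluted compound in duplicate. Fluorogenic substrate was then added and incubated 60 min at 30° C, and fluorescence read at Ex/Em 340/490 nm. IC50 came from a four-parameter fit of % inhibition.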

The next test deals with MERS Mpro (Middle East respiratory syndrome-related coronavirus, UniProt K9N7C7). Put plainly: biochemical. Further details: species or system MERS-CoV.
Chain of MERS Mpro (K9N7C7 3248-3553 limits assumed): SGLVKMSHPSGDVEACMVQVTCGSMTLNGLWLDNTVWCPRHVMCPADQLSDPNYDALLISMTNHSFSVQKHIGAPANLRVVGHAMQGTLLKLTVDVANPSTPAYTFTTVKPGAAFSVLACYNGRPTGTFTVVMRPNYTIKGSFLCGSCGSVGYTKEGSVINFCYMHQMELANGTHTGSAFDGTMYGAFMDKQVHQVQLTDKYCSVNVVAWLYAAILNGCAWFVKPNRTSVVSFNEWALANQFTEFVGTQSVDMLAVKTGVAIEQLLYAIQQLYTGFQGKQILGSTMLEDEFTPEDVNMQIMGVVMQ
For a further test, the target named is HCoV-HKU1 Mpro (Human coronavirus HKU1, UniProt P0C6X2). Nature of the test: HCoV-HKU1 Mpro enzymatic inhibition assay (fluorescence). In kind it is biochemical. The essentials: as §1
Chain of HCoV-HKU1 Mpro (P0C6X2 3335-3637 limits assumed): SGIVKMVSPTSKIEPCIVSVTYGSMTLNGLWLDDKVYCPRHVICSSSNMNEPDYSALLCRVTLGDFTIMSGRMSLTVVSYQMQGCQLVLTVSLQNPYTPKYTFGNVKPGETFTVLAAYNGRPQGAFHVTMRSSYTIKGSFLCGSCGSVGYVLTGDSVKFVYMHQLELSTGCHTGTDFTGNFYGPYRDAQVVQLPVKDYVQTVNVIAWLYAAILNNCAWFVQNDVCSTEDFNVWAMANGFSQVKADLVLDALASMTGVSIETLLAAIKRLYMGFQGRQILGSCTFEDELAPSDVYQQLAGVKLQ
Another test has as its target HCoV-OC43 Mpro (Human coronavirus OC43, UniProt P0C6X6). Put plainly: HCoV-OC43 Mpro enzymatic inhibition assay (fluorescence). Format: biochemical. The essentials: as §1

Where two headings read alike, the source gives them in different places.

Chain of HCoV-OC43 Mpro (P0C6X6 3247-3549 limits assumed): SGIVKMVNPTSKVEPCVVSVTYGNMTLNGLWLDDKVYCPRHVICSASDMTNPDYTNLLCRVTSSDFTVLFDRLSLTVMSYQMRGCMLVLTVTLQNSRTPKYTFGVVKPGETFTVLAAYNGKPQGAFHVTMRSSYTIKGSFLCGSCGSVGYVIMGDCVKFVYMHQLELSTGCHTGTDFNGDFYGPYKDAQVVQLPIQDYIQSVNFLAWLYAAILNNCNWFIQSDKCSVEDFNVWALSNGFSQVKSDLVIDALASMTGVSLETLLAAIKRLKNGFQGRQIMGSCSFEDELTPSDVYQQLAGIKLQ
Chain of HCoV-NL63 Mpro (P0C6X5 2940-3242 limits assumed): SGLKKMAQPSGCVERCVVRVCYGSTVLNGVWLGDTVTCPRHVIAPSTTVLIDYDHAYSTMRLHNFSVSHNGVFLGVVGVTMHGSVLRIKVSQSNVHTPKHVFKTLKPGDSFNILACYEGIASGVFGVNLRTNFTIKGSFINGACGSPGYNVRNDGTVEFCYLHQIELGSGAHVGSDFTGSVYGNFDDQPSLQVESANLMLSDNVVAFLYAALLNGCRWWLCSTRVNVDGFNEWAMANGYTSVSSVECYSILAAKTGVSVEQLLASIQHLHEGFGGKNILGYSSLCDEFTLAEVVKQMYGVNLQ
Chain of HCoV-229E Mpro (P0C6X1 2966-3267 limits assumed): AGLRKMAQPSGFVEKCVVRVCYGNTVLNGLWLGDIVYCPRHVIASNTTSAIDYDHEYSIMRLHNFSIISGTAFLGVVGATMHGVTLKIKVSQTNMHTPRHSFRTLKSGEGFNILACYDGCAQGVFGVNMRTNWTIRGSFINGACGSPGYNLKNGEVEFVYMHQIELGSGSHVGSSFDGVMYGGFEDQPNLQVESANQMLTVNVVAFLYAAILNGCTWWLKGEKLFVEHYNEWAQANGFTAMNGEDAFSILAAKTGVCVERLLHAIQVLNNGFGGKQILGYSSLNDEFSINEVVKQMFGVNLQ

As a reminder, the IC50 is the midpoint of a concentration-inhibition curve. With `CC1(C)[C@@H]2[C@@H](C(=O)N[C@H](C=O)C[C@@H]3CCNC3=O)N(C(=O)c3cc4c(Cl)cccc4[nH]3)C[C@@H]21` [Compound 43, (1R,2S,5S)-3-(4-Chloro-1H-indole-2-carbonyl)-6,6-dimethyl-N—((S)-1-oxo-3-((S)-2-oxopyrrolidin-3-yl)propan-2-yl)-3-azabicyclo[3.1.0]hexane-2-carboxamide], the IC50 on SARS-CoV-1 Mpro came to 25.8 nM; against HCoV-229E Mpro it was 39.3 nM; at HCoV-NL63 Mpro, 47.5 nM; against SARS-CoV-2 Mpro it was 22.1 nM; on MERS Mpro, 236 nM; against HCoV-HKU1 Mpro, 18 nM. The compound further came in with an IC50 against HCoV-OC43 Mpro of 45.4 nM.
On to `CC1(C)[C@@H]2[C@@H](C(=O)N[C@H](C#N)C[C@@H]3CCNC3=O)N(C(=O)C3(c4cccc(Cl)c4)CC3)C[C@@H]21` [Compound 123, (1R,2S,5S)-3-(1-(3-Chlorophenyl)cyclopropanecarbonyl)-N—((S)-1-cyano-2-((S)-2-oxopyrrolidin-3-yl)ethyl)-6,6-dimethyl-3-azabicyclo[3.1.0]hexane-2-carboxamide], for which the IC50 against SARS-CoV-1 Mpro came out at 224 nM; against HCoV-229E Mpro, 459 nM; on HCoV-NL63 Mpro, 2110 nM; at SARS-CoV-2 Mpro (mean, 25 nM protein, 25 μM substrate, 30 min pre-incubation, 60 min at 30° C., read-out: Mpro_SARS-CoV-2 mean IC50) it was 178 nM; against MERS Mpro, 1180 nM; against HCoV-HKU1 Mpro, 185 nM. The compound further came in with an IC50 at HCoV-OC43 Mpro of 419 nM.
Take `CC1(C)[C@@H]2[C@@H](C(=O)N[C@H](C=O)C[C@@H]3CCNC3=O)N(C(=O)c3cc4c(F)cc(F)cc4[nH]3)C[C@@H]21` [Compound 20, (1R,2S,5S)-3-(4,6-difluoro-1H-indole-2-carbonyl)-6,6-dimethyl-N—((S)-1-oxo-3-((S)-2-oxopyrrolidin-3-yl)propan-2-yl)-3-azabicyclo[3.1.0]hexane-2-carboxamide]: the IC50 against SARS-CoV-1 Mpro came to 40.4 nM; on HCoV-229E Mpro, 39.6 nM; against HCoV-NL63 Mpro it was 37.3 nM; at SARS-CoV-2 Mpro it was 15.5 nM; against MERS Mpro it was 274 nM; on HCoV-HKU1 Mpro it was 16.4 nM. Also, on HCoV-OC43 Mpro, the IC50 came to 55 nM.
For `CO[C@H]1C[C@@H](C(=O)N[C@H](C=O)C[C@@H]2CCNC2=O)N(C(=O)c2cc3ccccc3[nH]2)C1` [Compound 102, (2S,4S)-1-(1H-Indole-2-carbonyl)-4-methoxy-N—((S)-1-oxo-3-((S)-2-oxopyrrolidin-3-yl)propan-2-yl)pyrrolidine-2-carboxamide], the IC50 was found to be 204 nM against SARS-CoV-1 Mpro; 118 nM against HCoV-229E Mpro; 199 nM against HCoV-NL63 Mpro; 63.2 nM against SARS-CoV-2 Mpro; 631 nM at MERS Mpro; 83 nM against HCoV-HKU1 Mpro. For the same compound, the IC50 against HCoV-OC43 Mpro is 141 nM.
With `CC1(C)[C@@H]2[C@@H](C(=O)N[C@H](C=O)C[C@@H]3CCNC3=O)N(C(=O)c3cc4cccc(Cl)c4[nH]3)C[C@@H]21` [Compound 5, (1R,2S,5S)-3-(7-chloro-1H-indole-2-carbonyl)-6,6-dimethyl-N—((S)-1-oxo-3-((S)-2-oxopyrrolidin-3-yl)propan-2-yl)-3-azabicyclo[3.1.0]hexane-2-carboxamide], the IC50 at SARS-CoV-1 Mpro was found to be 22.5 nM; against HCoV-229E Mpro, 33.9 nM; on HCoV-NL63 Mpro, 53.5 nM; on SARS-CoV-2 Mpro, 10.5 nM; on MERS Mpro, 147 nM; against HCoV-HKU1 Mpro, 22 nM. This compound also gave an IC50 against HCoV-OC43 Mpro of 42.1 nM.
With `N#Cc1cccc2cc(C(=O)N3C[C@H](C4CCCCC4)C[C@H]3C(=O)N[C@H](C=O)C[C@@H]3CCNC3=O)[nH]c12` [Compound 75, (2S,4S)-1-(7-cyano-1H-indole-2-carbonyl)-4-cyclohexyl-N—((S)-1-oxo-3-((S)-2-oxopyrrolidin-3-yl)propan-2-yl)pyrrolidine-2-carboxamide], the IC50 at SARS-CoV-1 Mpro was determined as 66 nM; against HCoV-229E Mpro, 64 nM; against HCoV-NL63 Mpro it was 754 nM; against SARS-CoV-2 Mpro, 32.3 nM; at MERS Mpro it was 604 nM; against HCoV-HKU1 Mpro, 16.6 nM. Further, at HCoV-OC43 Mpro, the concentration for half-maximal inhibition (IC50) turned out to be 57 nM.
